{"source": "patent US7989467B2", "about": "“Use of indole-derived compounds for the preparation of a medicament that can be used to treat diseases related to the splicing process” (Centre National de la Recherche Scientifique (CNRS), priority 2003, dated 2011)", "key": {"M3S1 pre-messenger": {"system": "M3S1 pre-messenger", "assay": "In vitro splicing of M3S1 pre-messenger RNA (dependent on ESE recognized by SR ASF/SF2 protein)", "assay_type": "biochemical, human", "conditions": "for M3S1 splicing inhibition: 10 μM, FIG. 2; for effect on M3S1 splicing: concentration not given", "method": "The compounds presented in Tables 1 and 2 below were tested in a concentration range of 1 μM, 10 μM and 100 μM, and were selected initially on the basis of their capacity to inhibit, in vitro, the splicing of two types of model pre-mRNAs.\nThe second type of M3S1 pre-messenger is derived from the human […] gene (Labourier, E. et al. (1999), Antagonism between RSF1 and SR proteins for both splice-site recognition in vitro and Drosophila development. Genes Dev. 13, 740-753) and its splicing is strictly dependent on an auxiliary ESE sequence recognized specifically by the SR ASF/SF2 protein. Conditions for the transcription, splicing and analysis of this pre-messenger's products are identical to those used for the MINX pre-messenger."}, "[1]": {"system": "M3S1 transcript splicing complexes", "assay": "In vitro splicing-complex formation on M3S1 transcript", "assay_type": "biochemical, human", "conditions": "50 μM; 30 minutes of incubation; FIG. 3", "text": "The activity of the products has also been tested in splicing-complex formation reactions in vitro (FIG. 3) as described in Pilch B. et al. (Specific inhibition of serine- and arginine-rich splicing factors, phosphorylation, spliceosome assembly, and splicing by the antitumor drug NB-506. Cancer Res. 2001. 61, 6876-6884).\nM3S1 transcript splicing reactions in the presence of various compounds according to the invention performed under the same conditions as those described for FIG. 1 are stopped after 30 minutes of incubation by the addition of heparin and glycerol at a final concentration of 1 mg/ml and 15%, respectively."}, "[2]": {"system": "M3S1-PDH pre-messenger RNA", "assay": "Splicing of M3S1-PDH pre-messenger RNA (pyruvate dehydrogenase E1α subunit, mutated intron 7)", "assay_type": "biochemical, human", "conditions": "for M3S1-PDH splicing: FIG. 4B", "text": "In this substrate the sequences corresponding to exon 7-intron 7-exon 8 of the gene coding for the pyruvate dehydrogenase E1α subunit (PDH E1α) are inserted downstream from the M3S1 sequence (M3S1-PDH, see FIG. 4A). Intron 7 of this transcript contains a point mutation which creates a high affinity SR hSC35 protein binding site. This mutation, which causes the loss of PDH E1α expression in patients suffering from Leigh syndrome (an encephalopathy in children), leads to the appearance of a cryptic site 46 nucleotides downstream from the authentic 5′ splicing site (FIG. 4A). This substrate, likely to give rise to two products, one with and one without the 46 nucleotides of PDH intron 7, is ideal for determining the specificity of the compounds with respect to the various ESE sequences present within the same transcript.\nCompound C7 is thus an excellent inhibitor of defective splicing that is dependent on hSC35 ESE, but not on authentic splicing. This compound can thus be envisaged for treating patients suffering from this encephalopathy."}, "GFP-ESE transgene": {"system": "GFP-ESE transgene", "assay": "ESE-dependent splicing of GFP-ESE transgene mRNA in HeLa cells (RT-PCR)", "assay_type": "cell-based, human", "conditions": "1 μM per FIG. 5 legend", "text": "In order to test the efficiency of indole derivatives ex vivo, […] HeLa cell lines were established stably expressing a transgene corresponding to GFP whose sequence was interrupted by an ESE sequence flanked by two identical introns of the human […] gene described in Example 1 (see FIG. 5A).\nTo detect the messenger RNAs arising from the splicing of this gene, the RT-PCR technique was used with primers in the GFP sequence on each side of the ESE and the PCR products were analyzed on agarose gel.\nIn almost all the lines established, a single fragment of 250 base pairs (bp) was amplified by PCR (FIG. 5A, lanes 2 and 3) and it corresponds to an RNA messenger which included the ESE between the two GFP sequences."}, "HIV": {"system": "HIV", "assay": "Inhibition of HIV multiplication in PMA-stimulated U1 cells (RT-PCR of viral transcripts)", "assay_type": "cell-based", "conditions": "2.5 μM; 24 h; U1 cells treated with 50 nM PMA; FIG. 6", "text": "To this end, human […] cell line U1, which is chronically infected by HIV (Folks et al., 1988. Characterization of a promonocyte clone chronically infected with HIV and inducible by 13-phorbol-12-myristate acetate. J. Immunol., 140: 1117-1122) and which produces large quantities of virus after stimulation by PMA (phorbol myristate acetate), was used. As a result, this cell line constitutes an excellent model to mimic the transition between the latency phase and the viral production phase observed in patients infected by HIV.\nThe results of this experiment are presented in FIG. 6 in which U1 cells (5×10^5) were treated with 50 nM of PMA in the absence (FIG. 6, lane 1) or in the presence of 2.5 μM of compounds C47, C97, C58, C57, C92, C91, C90, C83, C73, C34, C51, C45, C13, C10, C44, C6, C7, C41, C50, C32, C2, C1, C29, C35 and C99 (FIG. 6, lanes 3-27, respectively). After 24 h of treatment, the virus's transcripts were amplified by RT-PCR using specific VIH, BSS and SJ4.7A primers (Jacquenet et al., 2001, A second exon splicing silencer within human immunodeficiency virus type 1 tat exon 2 represses splicing of Tat mRNA and binds protein hnRNP. H. J. Biol. Chem. 276: 40464-75) and a radioactive tracer (α-32P) CTP."}, "SRp55": {"biological_target": "T1, SRp55 (Homo sapiens, UniProt Q13247)", "T1 sequence (Q13247 1-344)": "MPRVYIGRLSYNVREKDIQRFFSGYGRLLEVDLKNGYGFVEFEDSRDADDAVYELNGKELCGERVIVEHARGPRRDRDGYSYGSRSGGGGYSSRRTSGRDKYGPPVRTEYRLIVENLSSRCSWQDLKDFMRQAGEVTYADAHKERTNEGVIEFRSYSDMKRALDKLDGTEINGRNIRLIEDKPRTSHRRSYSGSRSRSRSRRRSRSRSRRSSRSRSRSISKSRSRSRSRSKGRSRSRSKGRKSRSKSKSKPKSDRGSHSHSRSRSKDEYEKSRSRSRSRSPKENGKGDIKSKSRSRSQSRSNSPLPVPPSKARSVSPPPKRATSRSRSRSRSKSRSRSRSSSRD", "assay": "In vitro splicing results, Table 3: SRp55", "assay_type": "biochemical", "conditions": "summary of Table 3"}}}
{"molecule": "Cc1c2ccnc(Cl)c2cc2c3cn(C)ccc-3nc12", "note": "[C3, 10-chloro-2,6-dimethyl-2H-pyrido[3′,4′:4,5]pyrrolo[2,3-g]isoquinoline]", "values": [{"measurement": "M3S1 splicing inhibition", "setting": "M3S1 pre-messenger", "result": "M3S1 splicing inhibition"}, {"measurement": "inhibition of the formation of splicing complexes A and B on M3S1", "setting": "[1]", "result": "inhibition of the formation of splicing complexes A and B"}]}
{"molecule": "CC(=O)Oc1nccc2c(C)c3[nH]c4ccc(O)cc4c3cc12", "note": "[C4, 9-hydroxy-5-methyl-6H-pyrido[4,3-b]carbazol-1-yl acetic acid ester]", "values": [{"measurement": "effect on M3S1 splicing", "setting": "M3S1 pre-messenger", "result": "inactive on M3S1"}, {"measurement": "M3S1-PDH splicing", "setting": "[2]", "result": "has no effect"}]}
{"molecule": "COc1ccc2[nH]c3c(C)c4ccncc4c(NCCCN(C)C)c3c2c1", "note": "[C7, N′(9-methoxy-5-methyl-6H-pyrido[4,3-b]carbazol-11-yl)-N,N-dimethyl-propane-1,3-diamine]", "values": [{"measurement": "effect on M3S1 splicing", "setting": "M3S1 pre-messenger", "result": "do not modify M3S1 splicing"}, {"measurement": "RNA species from normal PDH splicing", "setting": "[2]; FIG. 4B lane 4", "result": "has no effect"}, {"measurement": "formation of RNA species arising from PDH splicing that include the 46 nucleotides of intron 7 (defective splicing dependent on hSC35 ESE)", "setting": "[2]; FIG. 4B lane 4", "result": "blocks the formation"}]}
{"molecule": "CCN(CC)CCCNc1nccc2c(C)c3[nH]c4ccc(OC)cc4c3cc12", "note": "[C8, N,N-diethyl-N′-(9-methoxy-5-methyl-6H-pyrido[4,3-b]carbazol-1-yl)-propane-1,3-diamine]", "values": [{"measurement": "M3S1-PDH splicing", "setting": "[2]", "result": "Inhibition of M3S1-PDH"}]}
{"molecule": "COc1ccc2[nH]c3c(C)c4ccnc(NCCCN5CCN(CCCN)CC5)c4cc3c2c1", "note": "[C14]", "values": [{"measurement": "splicing profile of the GFP-ESE transgene (RT-PCR fragment without ESE)", "setting": "GFP-ESE transgene", "result": "revealed a fragment of 194 bp"}, {"measurement": "M3S1 splicing inhibition", "setting": "M3S1 pre-messenger", "result": "M3S1 splicing inhibition"}, {"measurement": "inhibition of the formation of splicing complexes A and B on M3S1", "setting": "[1]", "result": "inhibition of the formation of splicing complexes A and B"}]}
{"molecule": "CCN(CC)CCC(C)Nc1nccc2c(C)c3c(cc12)c1cnccc1n3C", "note": "(stereo not shown) [C28, N-3-(5,6-dimethyl-5H-pyrido[3′,4′:4,5]pyrrolo[2,3-g]isoquinolin-10-yl)-N,N-1-diethyl-butane-1,3-diamine]", "values": [{"measurement": "splicing profile of the GFP-ESE transgene (RT-PCR fragment without ESE)", "setting": "GFP-ESE transgene", "result": "revealed a fragment of 194 bp"}]}
{"molecule": "CCN(CC)CCNc1nccc2c(C)c3c(cc12)c1cc(OC)ccc1n3C", "note": "[C50, N,N-diethyl-N′-(9-methoxy-5,6-dimethyl-6H-pyrido[4,3-b]carbazol-1-yl)-ethane-1,2-diamine]", "values": [{"measurement": "inhibition of HIV multiplication (amplification of viral transcripts)", "setting": "HIV", "result": "excellent inhibitors of HIV multiplication"}, {"measurement": "inhibit the activity of the SRp55 protein specifically", "setting": "SRp55", "result": "inhibit the activity of the SRp55 protein specifically"}]}
{"molecule": "CNCCCNc1ncc(C)c2[nH]c3ccc4cc(OC)ccc4c3c12", "note": "[C57, N-(3-methoxy-8-methyl-7H-benzo[e]pyrido[4,3-b]indol-11-yl)-N′-methyl-propane-1,3-diamine]", "values": [{"measurement": "inhibition of HIV multiplication (amplification of viral transcripts)", "setting": "HIV", "result": "excellent inhibitors of HIV multiplication"}, {"measurement": "inhibit the activity of the SRp55 protein specifically", "setting": "SRp55", "result": "inhibit the activity of the SRp55 protein specifically"}]}
